Experimental data: patent US7087375B1, “Method for determining the mechanism of HIV RT inhibitors” (priority 2000, dated 2006)

What was measured:
[1] = test system: HXB2 site-directed mutant M41L, M184V, T215Y; assay type: cell-based; conditions: virus M41L
[2] = test system: HXB2 site-directed mutant T69S-AG; assay type: cell-based; conditions: virus T69S-AG
[3] = test system: HXB2 site-directed mutant T69S-SG; assay type: cell-based; conditions: virus T69S-SG
[4] = test system: HXB2 site-directed mutant V75T; assay type: cell-based; conditions: virus V75T
wild type HXB2 virus = assay: HIV drug susceptibility assay (recombinant virus, MT-4 cells); conditions: Human immunodeficiency virus 1, HXB2, MT4, read-out: mean IC50 for the wild type control virus
Procedure: Phenotypic susceptibility of these viable recombinant viruses to nucleoside analogs was then determined. […] Fold resistance values were calculated by dividing the mean 50% inhibitory concentration (IC50) for a recombinant virus from a mutant clone by the mean IC50 for recombinant wild type virus (HXB2).

[5] = test system: HXB2 site-directed mutant M41L, T69S-SS, T215Y; assay type: cell-based; conditions: virus M41L
[6] = test system: HXB2 site-directed mutant D67N, K70R; assay type: cell-based; conditions: virus D67N
[7] = test system: HXB2 site-directed mutant Q151M; assay type: cell-based; conditions: virus Q151M
[8] = test system: HXB2 site-directed mutant M41L, T215Y; assay type: cell-based; conditions: virus M41L
[9] = test system: HXB2 site-directed mutant M41L, T69S-SG, T215Y; assay type: cell-based; conditions: virus M41L
[10] = test system: HXB2 site-directed mutant M41L, D67N, K70R, M184V, T215Y; assay type: cell-based; conditions: virus M41L
[11] = test system: HXB2 site-directed mutant M41L, T69S-AG, T215Y; assay type: cell-based; conditions: virus M41L
[12] = test system: HXB2 site-directed mutant T69S-SS; assay type: cell-based; conditions: virus T69S-SS

SMILES	Fold resistance in IC50 relative to HXB2 [1]	Fold resistance in IC50 relative to HXB2 [2]	Fold resistance in IC50 relative to HXB2 [3]	Fold resistance in IC50 relative to HXB2 [4]	IC50 (wild type HXB2 virus)	Fold resistance in IC50 relative to HXB2 [5]	Fold resistance in IC50 relative to HXB2 [6]	Fold resistance in IC50 relative to HXB2 [7]	Fold resistance in IC50 relative to HXB2 [8]	Fold resistance in IC50 relative to HXB2 [9]	Fold resistance in IC50 relative to HXB2 [10]	Fold resistance in IC50 relative to HXB2 [11]	Fold resistance in IC50 relative to HXB2 [12]
Nc1nc(NC2CC2)c2ncn([C@H]3C=C[C@@H](CO)C3)c2n1 [Abacavir, abacavir]	7.1 fold	7.0 fold	4.0 fold	1.8 fold	2100 nM	4.6 fold	1.8 fold	2.8 fold	4.4 fold	9.6 fold	4.1 fold	12.0 fold	3.0 fold
Nc1ccn([C@H]2CC[C@@H](CO)O2)c(=O)n1 [ddC, zalcitabine]	5.0 fold	2.8 fold	1.7 fold	3.0 fold	710 nM	1.5 fold	1.3 fold	5.4 fold	2.5 fold	2.8 fold	5.1 fold	2.5 fold	3.2 fold
O=c1[nH]cnc2c1ncn2[C@H]1CC[C@@H](CO)O1 [ddI, didanosine]	8.0 fold	3.8 fold	2.1 fold	2.5 fold	1600 nM	2.5 fold	0.3 fold	3.5 fold	0.9 fold	5.0 fold	2.4 fold	6.5 fold	4.3 fold
